Experimental data: the RepoRT retention time repository

Test: HILIC, HILICON iHILIC-(P) Classic, HILIC, PEEK, 100 × 2.1 mm, 5 µm, 40 °C, 0.12 mL/min, estimated dead time 1.8 min; A: water + 20 mM ammonium carbonate + 5 µM medronic acid; B: 10% water + 90% acetonitrile + 2 mM ammonium carbonate + 0.5 µM medronic acid; gradient (min/%B) 0/95 18/55 19/20 22/20 22.5/95 24/95 26/95
Details: stereoisomer not certain

| SMILES | LC retention time [min] |
| --- | --- |
| O=P(O)(O)OCC(O)CO (stereo not drawn) [Glycerol-3-phosphate] | 11 |
| O=C(O)C=CC(=O)O [Fumaric Acid] | 12 |
| C=C(OP(=O)(O)O)C(=O)O [PEP] | 14.5 |
| NCCCCC(N)C(=O)O (stereo not drawn) [Lysine] | 18.5 |
| NC(CCC(=O)O)C(=O)O (stereo not drawn) [Glutamic acid] | 9.95 |
| O=C(O)CC(O)(CC(=O)O)C(=O)O [Citric acid] | 15 |
| NC(CCC(=O)NC(CSSCC(NC(=O)CCC(N)C(=O)O)C(=O)NCC(=O)O)C(=O)NCC(=O)O)C(=O)O (stereo not drawn) [GSSG] | 14.8 |
| O=C(O)CCC(=O)C(=O)O [2-Oxoglutaric acid] | 12.7 |
| O=C(O)CCC(=O)O [Succinic Acid] | 10.9 |
| O=C(O)CC(O)C(=O)O (stereo not drawn) [Malic Acid] | 11.9 |
| NC(N)=NCCCC(N)C(=O)O (stereo not drawn) [Arginine] | 18.9 |
| NC(=O)CCC(N)C(=O)O (stereo not drawn) [Glutamine] | 9.95 |
| CC(O)C(=O)O (stereo not drawn) [Lactic Acid] | 3.31 |
| NC(=O)CC(N)C(=O)O (stereo not drawn) [Asparagine] | 9.93 |

Second part, the molecule after the results:

| LC retention time [min] | SMILES |
| --- | --- |
| 9.81 | Nc1ncnc2c1ncn2C1OC(COP(=O)(O)O)C(O)C1O (stereo not drawn) [AMP] |
| 11.7 | CC(=O)NC1C(OP(=O)(O)OP(=O)(O)OCC2OC(n3ccc(=O)[nH]c3=O)C(O)C2O)OC(CO)C(O)C1O (stereo not drawn) [UDP-GlcNAc] |
| 14.3 | NC(=O)c1ccc[n+](C2OC(COP(=O)(O)OP(=O)(O)OCC3OC(n4cnc5c(N)ncnc54)C(OP(=O)(O)O)C3O)C(O)C2O)c1 (stereo not drawn) [NADP] |
| 9.3 | NC(=O)C1=CN(C2OC(COP(=O)(O)OP(=O)(O)OCC3OC(n4cnc5c(N)ncnc54)C(O)C3O)C(O)C2O)C=CC1 (stereo not drawn) [NADH] |
| 11.4 | CC(C)(COP(=O)(O)OP(=O)(O)OCC1OC(n2cnc3c(N)ncnc32)C(O)C1OP(=O)(O)O)C(O)C(=O)NCCC(=O)NCCS (stereo not drawn) [CoenzymeA] |
| 15.5 | NC(=O)C1=CN(C2OC(COP(=O)(O)OP(=O)(O)OCC3OC(n4cnc5c(N)ncnc54)C(OP(=O)(O)O)C3O)C(O)C2O)C=CC1 (stereo not drawn) [NADPH] |
| 10 | CC(=O)SCCNC(=O)CCNC(=O)C(O)C(C)(C)COP(=O)(O)OP(=O)(O)OCC1OC(n2cnc3c(N)ncnc32)C(O)C1OP(=O)(O)O (stereo not drawn) [Acetyl-CoA] |
| 15.7 | O=C(O)CC(C(=O)O)C(O)C(=O)O (stereo not drawn) [Isocitric acid] |
| 9.93 | NC(CCC(=O)NC(CS)C(=O)NCC(=O)O)C(=O)O (stereo not drawn) [GSH] |
| 10.4 | NC(=O)c1ccc[n+](C2OC(COP(=O)(O)OP(=O)(O)OCC3OC(n4cnc5c(N)ncnc54)C(O)C3O)C(O)C2O)c1 (stereo not drawn) [NAD] |
| 4.33 | Nc1ncnc2c1ncn2C1OC(CO)C(O)C1O (stereo not drawn) [Adenosine] |
| 11.3 | O=P(O)(O)OCC1OC(O)C(O)C1O (stereo not drawn) [Pentose-phosphate] |
| 12.5 | O=P(O)(O)OC1OC(CO)C(O)C(O)C1O (stereo not drawn) [Glucose-1-phosphate] |
| 15.9 | O=P(O)(O)OCC1OC(O)(COP(=O)(O)O)C(O)C1O (stereo not drawn) [Fructose-1,6-bisphosphate] |
| 13.5 | O=P(O)(O)OCC1OC(O)C(O)C(O)C1O (stereo not drawn) [Glucose-6-phosphate] |
| 12.5 | O=C(CO)C(O)C(O)C(O)COP(=O)(O)O (stereo not drawn) [Fructose 6-phosphate] |
| 11.3 | O=C(CO)COP(=O)(O)O [Triose phosphate] |
| 13.7 | Nc1ncnc2c1ncn2C1OC(COP(=O)(O)OP(=O)(O)OP(=O)(O)O)C(O)C1O (stereo not drawn) [ATP] |
| 12.2 | Nc1ncnc2c1ncn2C1OC(COP(=O)(O)OP(=O)(O)O)C(O)C1O (stereo not drawn) [ADP] |
